# What was measured:
# HLA-E = HLA-E (Homo sapiens, UniProt P13747); test: HLA-E surface stabilization assay with RMA-S/HLA-E cells; assay type: cell-based; conditions: RMA-S/HLA-E cells incubated with 30 μM peptide, anti-HLA-E antibody
# Protocol: Assessment of peptide-HLA-E binding via HLA-E surface stabilization assay with RMA-S/HLA-E cells incubated with 30 μM peptide. HLA-E expression is detected with an anti-HLA-E antibody.
# To do so, various sequence variants were assessed for their ability to stabilize surface-expressed HLA-E on RMA-S/HLA-E cells, a TAP-deficient mouse tumor cell line engineered to express HLA-E and human β2M (FIG. 3).
# NKG2A+/NKG2C− NK cells = test: NK cell stimulation assay with peptide-loaded HLA-E expressing target cells, NKG2A+ cells; assay type: cell-based, human; conditions: NK cell degranulation and IFN-g, TNF and CCL3 production; compared to LIL, LFL and PQS controls
# Protocol: (§1) FIG. 4: NK cell stimulation assays. Assessment of effects of peptides on NK cell activity through incubation of NK cells, peptides, and a) K562/HLA-E or b) RMA-S/HLA-E target cells. Peptides were derived from the human or CMV proteomes or are included as positive (LFL, LIL) or negative controls (PQS). Replicates for individual peptides are from different donors, with solid black lines indicating mean values.
# (§2) Cell-based activation assays were performed with primary NK cells (FIG. 4). Therein, NK cells were co-incubated with K562 peptide-loaded HLA-E expressing cells, as described previously^14. The K562 human […] cell line is a common tool for the analysis of NK cell cytotoxicity and activation, as said cells facilitate the analysis of both NKG2C-mediated activation and NKG2A-mediated inhibition. The PQS peptide served as a negative control.
# (§3) Peptides that bound and stabilized HLA-E in the cell-based stability experiment (FIG. 3) were selected and assessed regarding their effect on NKG2A+/NKG2C− or NKG2A−/NKG2C+ NK cell activity. The effect was quantified by the ability to induce NK cell degranulation and IFN-g, TNF and CCL3 production, compared to […] (“LIL”; SEQ ID NO: 4) and […] (“LFL”; SEQ ID NO: 2) peptides (class I MHC-derived) as positive control, and […] (“PQS”; (SEQ ID NO: 53) as negative control peptide (FIG. 4). NKG2A/NKG2C NK cells served as an internal control. NKG2A/NKG2C NK cells have been shown previously to not be affected by peptide-HLA-E complexes.
# NKG2A−/NKG2C+ NK cells = test: NK cell stimulation assay with peptide-loaded HLA-E expressing target cells, NKG2C+ cells; assay type: cell-based, human; conditions: NK cell degranulation and IFN-g, TNF and CCL3 production; compared to LIL, LFL and PQS controls
# Protocol: as §1, §2, §3
# HLA-E, sequence (P13747 22-358): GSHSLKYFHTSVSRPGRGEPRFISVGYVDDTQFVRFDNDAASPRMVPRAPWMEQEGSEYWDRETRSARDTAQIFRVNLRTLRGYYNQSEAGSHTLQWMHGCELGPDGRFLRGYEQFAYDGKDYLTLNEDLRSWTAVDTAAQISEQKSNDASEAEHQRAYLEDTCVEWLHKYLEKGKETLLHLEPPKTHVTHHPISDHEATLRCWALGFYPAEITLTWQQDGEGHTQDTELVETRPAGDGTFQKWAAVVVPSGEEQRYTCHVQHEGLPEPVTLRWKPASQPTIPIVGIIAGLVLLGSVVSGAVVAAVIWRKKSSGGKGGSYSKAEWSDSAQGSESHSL
# HLA-E, sequence (P61769 21-119, further chain): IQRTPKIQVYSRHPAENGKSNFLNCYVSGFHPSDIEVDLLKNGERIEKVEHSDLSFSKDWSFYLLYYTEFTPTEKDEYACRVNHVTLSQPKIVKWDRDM
Sequence,stabilization of HLA-E surface expression (peptide-HLA-E binding) (HLA-E),inhibitory effect on NKG2A+ cells (NKG2A+/NKG2C− NK cells),activating effect on NKG2C+ cells (NKG2A−/NKG2C+ NK cells)
FLPNRSLLF,strong stabilization of HLA-E,moderate inhibitory effects,strong activating effects
ILTDRSLWL,strong stabilization of HLA-E,moderate inhibitory effects,strong activating effects
NMPARTVLF,strong stabilization of HLA-E,strong inhibitory effect,strong activating effect
QMPSRSLLF,strong stabilization of HLA-E,moderate inhibitory effects,strong activating effects
RMPPRSVLL,,strong inhibitory effect,strong activating effect
TAPARTMFL,strong stabilization of HLA-E,,
TLPERTLYL,strong stabilization of HLA-E,strong inhibitory effect,strong activating effect
TLPKRGLFL,strong stabilization of HLA-E,moderate inhibitory effects,strong activating effects
VLPHRTQFL,strong HLA-E binding,strong inhibitory effect,strong activating effect
"VMADKSIFY [OR5D14, reference compound]",no stabilizing effects,,
"VMGDRSVLY [EMC1, reference compound]",no stabilizing effects,,
VMPGRTLCF,strong stabilization of HLA-E,strong inhibitory effect,strong activating effect
VMPPRTLLL,strong stabilization of HLA-E,strong inhibitory effect,strong activating effect
"WNRLFPPLR [UBAC2275-279, reference compound]",no stabilizing effects,,

# From patent US20260286356A1, “NUCLEIC ACID VACCINE FOR ACTIVATING NKG2C+ NATURAL KILLER CELLS” (priority 2023, published 2026)
